Assay results from patent US9062071B2, “Substituted piperidines as HDM2 inhibitors” (Merck Sharp & Dohme Corp, priority 2011, dated 2015).

target: HDM2 protein (Homo sapiens, UniProt Q00987); experiment: fluorescence polarization screening assay (FP IC50); format: binding; settings: class symbols
Method: The compounds were evaluated to determine activity at the HDM2 protein by known methods such as the fluorescence polarization screening assay that measures the inhibitory concentration that achieves 50% of maximal activity (FP IC50) and the dissociation constant for inhibitor binding (FP Ki). [Zhang et al., J. Analytical Biochemistry 331: 138-146 (2004)].

Chain of HDM2 protein (Q00987 whole entry): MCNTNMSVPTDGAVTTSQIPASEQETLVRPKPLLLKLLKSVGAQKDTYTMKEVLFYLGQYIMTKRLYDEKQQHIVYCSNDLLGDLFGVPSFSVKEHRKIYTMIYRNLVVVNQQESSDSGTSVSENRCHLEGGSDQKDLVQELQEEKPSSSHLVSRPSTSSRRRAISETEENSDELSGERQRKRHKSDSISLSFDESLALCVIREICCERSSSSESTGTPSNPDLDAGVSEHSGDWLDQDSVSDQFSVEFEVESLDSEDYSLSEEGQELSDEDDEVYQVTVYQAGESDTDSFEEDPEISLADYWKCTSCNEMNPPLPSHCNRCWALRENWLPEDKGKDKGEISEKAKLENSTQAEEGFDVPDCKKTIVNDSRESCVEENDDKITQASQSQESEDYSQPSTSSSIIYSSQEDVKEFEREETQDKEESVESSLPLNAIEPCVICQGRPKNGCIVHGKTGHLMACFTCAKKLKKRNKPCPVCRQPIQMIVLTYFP

`CCC[C@H]1N(C(=O)c2ncccc2C(F)(F)F)CCC[C@@]1(Oc1csc(C(F)(F)F)c1)C(=O)N1CCc2cc(F)ccc2C1CCCCC(=O)O` (stereo partly drawn) [Compound A43, 5-(6-fluoro-2-{[(2R,3S)-2-propyl-1-{[3-(trifluoromethyl)pyridin-2-yl]carbonyl}-3-{[5-(trifluoromethyl)thiophen-3-yl]oxy}piperidin-3-yl]carbonyl}-1,2,3,4-tetrahydroisoquinolin-1-yl)pentanoic acid] and `CCC[C@H]1N(C(=O)c2ncccc2C(F)(F)F)CCC[C@@]1(Oc1csc(C(F)(F)F)c1)C(=O)N1CCc2cc(Br)ccc2C1CCC(=O)O` (stereo partly drawn) [Compound A58, 3-(6-bromo-2-{[(2R,3S)-2-propyl-1-{[3-(trifluoromethyl)pyridin-2-yl]carbonyl}-3-{[5-(trifluoromethyl)thiophen-3-yl]oxy}piperidin-3-yl]carbonyl}-1,2,3,4-tetrahydroisoquinolin-1-yl)propanoic acid] fall in the same range of IC50: 1 to 100 nM for the first, 1 to 100 nM for the second.

`CCC[C@H]1N(C(=O)c2ncccc2C(F)(F)F)CCC[C@@]1(Oc1csc(C(F)(F)F)c1)C(=O)N1CCc2cc(Cl)ccc2C1CCC(=O)NS(C)(=O)=O` (stereo partly drawn) [Compound A63, 3-(6-chloro-2-{[(2R,3S)-2-propyl-1-{[3-(trifluoromethyl)pyridin-2-yl]carbonyl}-3-{[5-(trifluoromethyl)thiophen-3-yl]oxy}piperidin-3-yl]carbonyl}-1,2,3,4-tetrahydroisoquinolin-1-yl)-N-(methylsulfonyl) propanamide] and `CCC[C@H]1N(C(=O)c2ncccc2C(F)(F)F)CCC[C@@]1(Oc1csc(C(F)(F)F)c1)C(=O)N1CCc2cc(Cl)ccc2C1CC(C)(C)C(=O)NS(C)(=O)=O` (single isomer, unassigned) [Compound A68] fall in the same range of IC50: 1 to 100 nM for the first, 1 to 100 nM for the second.

Compared with `COCCN(C)CC[C@H]1N(C(=O)c2ncccc2C(F)(F)F)CCC[C@@]1(Oc1csc(C(F)(F)F)c1)C(=O)N1CCc2cc(Cl)ccc2C1` [Compound A117, 2-[(2R,3S)-3-[(6-chloro-3,4-dihydroisoquinolin-2(1H)-yl)carbonyl]-1-{[3-(trifluoromethyl)pyridin-2-yl]carbonyl}-3-{[5-(trifluoromethyl)thiophen-3-yl]oxy}piperidin-2-yl]-N-(2-methoxyethyl)-N-methylethanamine], `CCC[C@H]1N(C(=O)c2ncccc2C(F)(F)F)CCC[C@@]1(Oc1csc(C(F)(F)F)c1)C(=O)N1CCc2cc(C(N)=O)ccc2C1` [Compound A89, 2-{[(2R,3S)-2-propyl-1-{[3-(trifluoromethyl)pyridin-2-yl]carbonyl}-3-{[5-(trifluoromethyl)thiophen-3-yl]oxy}piperidin-3-yl]carbonyl}-1,2,3,4-tetrahydroisoquinoline-6-carboxamide] is higher in IC50: 1 to 100 nM for the first, 101 to 20000 nM for the second. The first is the more potent here.

`CCC[C@H]1N(C(=O)c2ncccc2C(F)(F)F)CCC[C@@]1(Oc1csc(C(F)(F)F)c1)C(=O)N1CCc2cc(F)ccc2C1C(=O)O` (stereo partly drawn) [Compound A101, 6-fluoro-2-{[(2R,3S)-2-propyl-1-{[3-(trifluoromethyl)pyridin-2-yl]carbonyl}-3-{[5-(trifluoromethyl)thiophen-3-yl]oxy}piperidin-3-yl]carbonyl}-1,2,3,4-tetrahydroisoquinoline-1-carboxylic acid] and `CCC[C@H]1N(C(=O)c2ncccc2C(F)(F)F)CCC[C@@]1(Oc1csc(C(F)(F)F)c1)C(=O)N1CCc2cc(Br)ccc2C1CC(=O)O` (stereo partly drawn) [Compound A70, (6-bromo-2-{[(2R,3S)-2-propyl-1-{[3-(trifluoromethyl)pyridin-2-yl]carbonyl}-3-{[5-(trifluoromethyl)thiophen-3-yl]oxy}piperidin-3-yl]carbonyl}-1,2,3,4-tetrahydroisoquinolin-1-yl)acetic acid] fall in the same range of IC50: 1 to 100 nM for the first, 1 to 100 nM for the second.

First: CCC[C@H]1N(C(=O)c2cnccc2C(F)(F)F)CCC[C@@]1(Oc1csc(C(F)(F)F)c1)C(=O)N1CCc2cccc(O)c2C1 [Compound A121, 2-{[(2R,3S)-2-propyl-1-{[4-(trifluoromethyl)pyridin-3-yl]carbonyl}-3-{[5-(trifluoromethyl)thiophen-3-yl]oxy}piperidin-3-yl]carbonyl}-1,2,3,4-tetrahydroisoquinolin-8-ol]
Second: CCC[C@H]1N(C(=O)c2ncccc2C(F)(F)F)CCC[C@@]1(Oc1csc(C(F)(F)F)c1)C(=O)N1CCc2cc(Br)ccc2C1CCC(=O)O (stereo partly drawn) [Compound A57, 3-(6-bromo-2-{[(2R,3S)-2-propyl-1-{[3-(trifluoromethyl)pyridin-2-yl]carbonyl}-3-{[5-(trifluoromethyl)thiophen-3-yl]oxy}piperidin-3-yl]carbonyl}-1,2,3,4-tetrahydroisoquinolin-1-yl)propanoic acid]
The IC50 of the first is higher: 101 to 20000 nM for the first, 1 to 100 nM for the second.

`CCC[C@H]1N(C(=O)c2ncccc2C(F)(F)F)CCC[C@@]1(Oc1csc(C(F)(F)F)c1)C(=O)N1CCc2sc(Cl)cc2C1CN1CCCC1` (stereo partly drawn) [Compound A35, 2-chloro-5-{[(2R,3S)-2-propyl-1-{[3-(trifluoromethyl)pyridin-2-yl]carbonyl}-3-{[5-(trifluoromethyl)thiophen-3-yl]oxy}piperidin-3-yl]carbonyl}-4-(pyrrolidin-1-ylmethyl)-4,5,6,7-tetrahydrothieno[3,2-c]pyridine] and `CCC[C@H]1N(C(=O)c2ncccc2C(F)(F)F)CCC[C@@]1(Oc1csc(C(F)(F)F)c1)C(=O)N1CCc2sc(Cl)cc2C1CCCN1CCOCC1` (stereo partly drawn) [Compound A32, 2-chloro-4-(3-morpholin-4-ylpropyl)-5-{[(2R,3S)-2-propyl-1-{[3-(trifluoromethyl)pyridin-2-yl]carbonyl}-3-{[5-(trifluoromethyl)thiophen-3-yl]oxy}piperidin-3-yl]carbonyl}-4,5,6,7-tetrahydrothieno[3,2-c]pyridine] fall in the same range of IC50: 101 to 20000 nM for the first, 101 to 20000 nM for the second.

`CCC[C@H]1N(C(=O)c2ncccc2C(F)(F)F)CCC[C@@]1(Oc1csc(C(F)(F)F)c1)C(=O)N1CCc2sc(Cl)cc2C1CC(C)(C)C(=O)O` (stereo partly drawn) [Compound A26, 3-(2-chloro-5-{[(2R,3S)-2-propyl-1-{[3-(trifluoromethyl)pyridin-2-yl]carbonyl}-3-{[5-(trifluoromethyl)thiophen-3-yl]oxy}piperidin-3-yl]carbonyl}-4,5,6,7-tetrahydrothieno[3,2-c]pyridin-4-yl)-2,2-dimethylpropanoic acid] and `CCC[C@H]1N(C(=O)c2ncccc2C(F)(F)F)CCC[C@@]1(Oc1csc(C(F)(F)F)c1)C(=O)N1CCc2cc(Cl)sc2C1CC(C)(C)C(=O)O` (stereo partly drawn) [Compound A31, 3-(2-chloro-6-{[(2R,3S)-2-propyl-1-{[3-(trifluoromethyl)pyridin-2-yl]carbonyl}-3-{[5-(trifluoromethyl)thiophen-3-yl]oxy}piperidin-3-yl]carbonyl}-4,5,6,7-tetrahydrothieno[2,3-c]pyridin-7-yl)-2,2-dimethylpropanoic acid] fall in the same range of IC50: 1 to 100 nM for the first, 1 to 100 nM for the second.

Compared with `CCC[C@H]1N(C(=O)c2ncccc2C(F)(F)F)CCC[C@@]1(Oc1csc(C(F)(F)F)c1)C(=O)N1Cc2ccc(F)cc2C[C@H]1C(=O)N1CCN(C)CC1` [Compound A160, (3S)-6-fluoro-3-[(4-methylpiperazin-1-yl)carbonyl]-2-{[(2R,3S)-2-propyl-1-{[3-(trifluoromethyl)pyridin-2-yl]carbonyl}-3-{[5-(trifluoromethyl)thiophen-3-yl]oxy}piperidin-3-yl]carbonyl}-1,2,3,4-tetrahydroisoquinoline], `CCC[C@H]1N(C(=O)c2ncccc2C(F)(F)F)CCC[C@@]1(Oc1csc(C(F)(F)F)c1)C(=O)N1Cc2ccc(Cl)cc2C[C@@H]1C(C)CC(=O)O` (stereo partly drawn) [Compound A133, 3-[(3R)-6-chloro-2-{[(2R,3S)-2-propyl-1-{[3-(trifluoromethyl)pyridin-2-yl]carbonyl}-3-{[5-(trifluoromethyl)thiophen-3-yl]oxy}piperidin-3-yl]carbonyl}-1,2,3,4-tetrahydroisoquinolin-3-yl]butanoic acid] is lower in IC50: 101 to 20000 nM for the first, 1 to 100 nM for the second. The second is the more potent here.

`CCC[C@H]1N(C(=O)c2ncccc2C(F)(F)F)CCC[C@@]1(Oc1csc(C(F)(F)F)c1)C(=O)N1Cc2sc(Cl)cc2CC1C(=O)O` (stereo partly drawn) [Compound A172, 2-chloro-6-{[(2R,3S)-2-propyl-1-{[3-(trifluoromethyl)pyridin-2-yl]carbonyl}-3-{[5-(trifluoromethyl)thiophen-3-yl]oxy}piperidin-3-yl]carbonyl}-4,5,6,7-tetrahydrothieno[2,3-c]pyridine-5-carboxylic acid] and `CCC[C@H]1N(C(=O)c2ncccc2C(F)(F)F)CCC[C@@]1(Oc1csc(C(F)(F)F)c1)C(=O)N1CCc2sc(Cl)cc2C1C(=O)O` (stereo partly drawn) [Compound A14, 2-chloro-5-{[(2R,3S)-2-propyl-1-{[3-(trifluoromethyl)pyridin-2-yl]carbonyl}-3-{[5-(trifluoromethyl)thiophen-3-yl]oxy}piperidin-3-yl]carbonyl}-4,5,6,7-tetrahydrothieno[3,2-c]pyridine-4-carboxylic acid] fall in the same range of IC50: 1 to 100 nM for the first, 1 to 100 nM for the second.

`CCC[C@H]1N(C(=O)c2ncccc2C(F)(F)F)CCC[C@@]1(Oc1csc(C(F)(F)F)c1)C(=O)N1CCc2cc(Cl)ccc2C1CC(=O)N1CCC(O)CC1` (stereo partly drawn) [Compound A82, 1-[(6-chloro-2-{[(2R,3S)-2-propyl-1-{[3-(trifluoromethyl)pyridin-2-yl]carbonyl}-3-{[5-(trifluoromethyl)thiophen-3-yl]oxy}piperidin-3-yl]carbonyl}-1,2,3,4-tetrahydroisoquinolin-1-yl)acetyl]piperidin-4-ol] and `CCC[C@H]1N(C(=O)c2ncccc2C(F)(F)F)CCC[C@@]1(Oc1csc(C(F)(F)F)c1)C(=O)N1CCc2cc(Cl)ccc2C1CC(C)(C)C(=O)O` (stereo partly drawn) [Compound A108, 3-(6-chloro-2-{[(2R,3S)-2-propyl-1-{[3-(trifluoromethyl)pyridin-2-yl]carbonyl}-3-{[5-(trifluoromethyl)thiophen-3-yl]oxy}piperidin-3-yl]carbonyl}-1,2,3,4-tetrahydroisoquinolin-1-yl)-2,2-dimethylpropanoic acid] fall in the same range of IC50: 1 to 100 nM for the first, 1 to 100 nM for the second.
